Where two headings read alike, the source gives them in different places.
Target: TNF-α converting enzyme (TACE) (Homo sapiens, UniProt P78536)
Assay: TACE inhibition (fluorescent peptidyl substrate)
Type: biochemical
Conditions: Table 15
[1] = IC 50 nM (In Vitro Inhibition of TACE)
[2] = read-out: IC 50 nM (In Vitro Inhibition of TACE)

Chain of TNF-α converting enzyme (TACE) (P78536 215-824, species assumed): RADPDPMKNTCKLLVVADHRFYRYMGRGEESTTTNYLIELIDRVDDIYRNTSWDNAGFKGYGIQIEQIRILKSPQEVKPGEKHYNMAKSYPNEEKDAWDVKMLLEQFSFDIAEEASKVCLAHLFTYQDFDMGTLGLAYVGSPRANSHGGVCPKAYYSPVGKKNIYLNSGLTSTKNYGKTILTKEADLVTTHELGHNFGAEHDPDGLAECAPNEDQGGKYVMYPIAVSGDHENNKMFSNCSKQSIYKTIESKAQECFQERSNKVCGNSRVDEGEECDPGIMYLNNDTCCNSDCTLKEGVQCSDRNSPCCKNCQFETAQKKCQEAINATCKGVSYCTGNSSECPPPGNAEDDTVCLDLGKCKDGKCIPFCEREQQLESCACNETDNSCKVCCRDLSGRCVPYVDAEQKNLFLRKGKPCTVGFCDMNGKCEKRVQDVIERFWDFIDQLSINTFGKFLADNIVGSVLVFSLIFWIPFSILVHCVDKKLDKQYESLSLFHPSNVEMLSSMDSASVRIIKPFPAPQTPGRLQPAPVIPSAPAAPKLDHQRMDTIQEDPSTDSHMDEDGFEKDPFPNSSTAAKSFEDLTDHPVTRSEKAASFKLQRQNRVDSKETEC
Experimental: Using 96-well black microtiter plates, each well receives a solution composed of 10 μL TACE (final concentration 1 μg/mL), 70 μL Tris buffer, pH 7.4 containing 10% glycerol (final concentration 10 mM), and 10 μL of test compound solution in DMSO (final concentration 1 μM, DMSO concentration <1%) and incubated for 10 minutes at room temperature.
The reaction is read (excitation 340 nm, emission 420 nm) for 10 min. and the increase in fluorescence over time is plotted as a linear line. The slope of the line is calculated and represents the reaction rate.
The linearity of the reaction rate is confirmed (r^2>0.85). The mean (x±sem) of the control rate is calculated and compared for statistical significance (p<0.05) with drug-treated rates using Dunnett's multiple comparison test.

Compound | IC50 [1] | also measured
CC#CCOc1ccc(S(=O)(=O)N[C@H](CC(N)=O)C(=O)NO)cc1 [Example 75] | 387 nM | 
CC#CCOc1ccc(S(=O)(=O)N[C@H](Cc2ccc(F)cc2)C(=O)NO)cc1 [Example 316, (2R)-2-({[4-(But-2-ynyloxy)phenyl]sulfonyl}amino)-3-(4-fluorophenyl)-N-hydroxypropanamide] | 4 nM | 
CC#CCOc1ccc(S(=O)(=O)N2C[C@@H](O)C[C@@H]2C(=O)NO)cc1 [Example 307, (2R,4S)-1-{[4-(But-2-ynyloxy)phenyl]sulfonyl}-N,4-dihydroxypyrrolidine-2-carboxamide] | 29.4 nM | 
CC#CCOc1ccc(S(=O)(=O)N[C@@H](C(=O)NO)C(C)C)cc1 [Example 85] | 8.3 ± 2.7 nM | inhibition at 1 µM (1 uM, read-out: % Inhibition at 1 uM (In Vitro Inhibition of TACE)): 102%
CC#CCOc1ccc(S(=O)(=O)N2CCC[C@@H]2C(=O)NO)cc1 [Example 82] | 7.1 nM | 
CC#CCOc1ccc(S(=O)(=O)N[C@H](CCCNC(C)=O)C(=O)NO)cc1 [Example 328, (2R)-5-(Acetylamino)-2-({[4-(but-2-ynyloxy)phenyl]sulfonyl}amino)-N-hydroxypentanamide] | 6.26 nM | 
CC#CCOc1ccc(S(=O)(=O)N[C@H](CCCNC(=O)c2sccc2Cl)C(=O)NO)cc1 [Example 333, N-[(4R)-4-({[4-(But-2-ynyloxy)phenyl]sulfonyl}amino)-5-(hydroxyamino)-5-oxopentyl]-3-chlorothiophene-2-carboxamide] | 4.21 nM | 
(2R)-2-({[4-(But-2-ynyloxy)phenyl]sulfonyl}amino)-5-{[2-(3,4-dichlorophenyl)acetyl]amino}-N-hydroxypentanamide [Example 336] |  | IC50 [2]: 6.11 nM
CC#CCOc1ccc(S(=O)(=O)N[C@@H](C(=O)NO)C2CCCCC2)cc1 [Example 78] | 11.8 ± 4.6 nM | 
CC#CCOc1ccc(S(=O)(=O)N[C@H](C(=O)NO)c2ccccc2)cc1 [Example 95] | 120 nM | 
CC#CCOc1ccc(S(=O)(=O)N[C@H](CCCNC(=O)N(CC)CC)C(=O)NO)cc1 [Example 373] | 16.9 nM | 
CC#CCOc1ccc(S(=O)(=O)N[C@H](Cc2cccc3ccccc23)C(=O)NO)cc1 [Example 310, (2R)-2-({[4-(But-2-ynyloxy)phenyl]sulfonyl}amino)-N-hydroxy-3-(1-naphthyl)propanamide] | 27.9 nM | 
CC#CCOc1ccc(S(=O)(=O)N[C@H](CCCNC(=O)Cc2ccc([N+](=O)[O-])cc2)C(=O)NO)cc1 [Example 344, (2R)-2-({[4-(But-2-ynyloxy)phenyl]sulfonyl}amino)-N-hydroxy-5-{[2-(4-nitrophenyl)acetyl]amino}pentanamide] | 5.24 nM | 
CC#CCOc1ccc(S(=O)(=O)N[C@H](CCCNC(=O)C2CCCCC2)C(=O)NO)cc1 [Example 335, N-[(4R)-4-({[4-(But-2-ynyloxy)phenyl]sulfonyl}amino)-5-(hydroxyamino)-5-oxopentyl]cyclohexanecarboxamide] | 6.5 nM | 
CC#CCOc1ccc(S(=O)(=O)NCCC(=O)NO)cc1 [Example 69] |  | % Inhibition at 1 uM (In Vitro Inhibition of TACE) (1 uM): 48.5%
CC#CCOc1ccc(S(=O)(=O)N[C@H](Cc2cccs2)C(=O)NO)cc1 [Example 321, (2R)-2-({[4-(But-2-ynyloxy)phenyl]sulfonyl}amino)-N-hydroxy-3-thien-2-yl-propanamide] | 4.7 nM | 
CC#CCOc1ccc(S(=O)(=O)N[C@H](Cc2ccccc2)C(=O)NO)cc1 [Example 81] | 4.99 ± 1.1 nM | 
CC#CCOc1ccc(S(=O)(=O)N[C@H](CCCCNC(=O)c2cc(C)oc2C)C(=O)NO)cc1 [Example 356, N-[(5R)-5-({[4-(But-2-ynyloxy)phenyl]sulfonyl}amino)-6-(hydroxyamino)-6-oxohexyl]-2,5-dimethyl-3-furamide] | 9.36 nM | 
CC#CCOc1ccc(S(=O)(=O)N[C@H](Cc2ccc(O)cc2)C(=O)NO)cc1 [Example 84] | 7.8 ± 0.4 nM | 
CC#CCOc1ccc(S(=O)(=O)N[C@@H](C(=O)NO)c2ccccc2)cc1 [Example 327, (2R)-2-({[4-(But-2-ynyloxy)phenyl]sulfonyl}amino)-N-hydroxy-2-phenylethanamide] | 5.5 nM | 
CC#CCOc1ccc(S(=O)(=O)N[C@H](CCCNC(=O)c2cccs2)C(=O)NO)cc1 [Example 368, (4R)-4-({[4-(but-2-ynyloxy)Phenyl]sulfonyl}amino)-5-(hydroxyamino)-5-oxopentylithiophene-2-carboxamide] | 151 nM | 
CC#CCOc1ccc(S(=O)(=O)N[C@@H](CCCC)C(=O)NO)cc1 [Example 93] | 546 nM | 
CC#CCOc1ccc(S(=O)(=O)N[C@H](CCCNC(=O)Nc2ccccc2)C(=O)NO)cc1 [Example 370, (2R)-5-[(Anilinocarbonyl)amino]-2-({[4-(but-2-ynyloxy)phenyl]sulfonyl}amino)-N-hydroxypentanamide] | 2.4 nM | 

Compound | IC50 [1] | also measured
CC#CCOc1ccc(S(=O)(=O)N[C@H](CCCNC(=O)c2ccc(Br)cc2)C(=O)NO)cc1 [Example 331, 4-Bromo-N-[(4R)-4-({[4-(but-2-ynyloxy)phenyl]sulfonyl}amino)-5-(hydroxyamino)-5-oxopentyl]benzamide] | 5.32 nM | 
CC#CCOc1ccc(S(=O)(=O)N[C@H](CSCNC(C)=O)C(=O)NO)cc1 [Example 300, (2S)-3-{[(Acetylamino)methyl]thio}-2-({[4-(but-2-ynyloxy)phenyl]sulfonyl}amino)-N-hydroxypropanamide] | 11 nM | 
CC#CCOc1ccc(S(=O)(=O)N[C@H](Cc2ccc3ccccc3c2)C(=O)NO)cc1 [Example 311, (2R)-2-({[4-(But-2-ynyloxy)phenyl]sulfonyl}amino)-N-hydroxy-3-(2-naphthyl)propanamide] | 15.7 nM | 
CC#CCOc1ccc(S(=O)(=O)N[C@H](CCCCNC(=O)c2ccsc2)C(=O)NO)cc1 [Example 365, N-[(5R)-5-({[4-(But-2-ynyloxy)phenyl]sulfonyl}amino)-6-(hydroxyamino)-6-oxohexyl]thiophene-3-carboxamide] | 14.6 nM | 
CC#CCOc1ccc(S(=O)(=O)NC(CC(N)=O)C(=O)NO)cc1 (stereo not drawn) [Example 66] |  | % Inhibition at 1 uM (In Vitro Inhibition of TACE) (1 uM): 45.6%
CC#CCOc1ccc(S(=O)(=O)N[C@@H](CCCNC(=N)N)C(=O)NO)cc1 [Example 64] | 420 ± 50 nM | 
CC#CCOc1ccc(S(=O)(=O)N[C@H](CCCNC(=O)c2cnc3ccccc3c2)C(=O)NO)cc1 [Example 346, N-[(4R)-4-({[4-(But-2-ynyloxy)phenyl]sulfonyl}amino)-5-(hydroxyamino)-5-oxopentyl]quinoline-3-carboxamide] | 4.63 nM | 
CC#CCOc1ccc(S(=O)(=O)N[C@H](CCCNC(=O)OCCCCCCCC)C(=O)NO)cc1 [Example 371, Octyl(4R)-4-({[4-(but-2-ynyloxy)phenyl]sulfonyl}amino)-5-(hydroxyamino)-5-oxopentylcarbamate] | 377 nM | 
CC#CCOc1ccc(S(=O)(=O)N[C@H](CCCCNC(=O)c2ccc(Br)cc2)C(=O)NO)cc1 [Example 351, 4-Bromo-N-[(5R)-5-({[4-(but-2-ynyloxy)phenyl]sulfonyl}amino)-6-(hydroxyamino)-6-oxohexyl]benzamide] | 9.57 nM | 
CC#CCOc1ccc(S(=O)(=O)N[C@H](Cc2c[nH]c3ccccc23)C(=O)NO)cc1 [Example 83] | 45.1 ± 9.5 nM | 
CC#CCOc1ccc(S(=O)(=O)N[C@@H](CCCCN)C(=O)NO)cc1 [Example 92] | 490 ± 139 nM | 
CC#CCOc1ccc(S(=O)(=O)NC(Cc2c[nH]cn2)C(=O)NO)cc1 (stereo not drawn) [Example 87] |  | % Inhibition at 1 uM (In Vitro Inhibition of TACE) (1 uM): 47.8%
CC#CCOc1ccc(S(=O)(=O)N[C@H](CSCc2ccc(C)cc2)C(=O)NO)cc1 [Example 301, (2S)-2-({[4-(But-2-ynyloxy)phenyl]sulfonyl}amino)-N-hydroxy-3-[(4-methylbenzyl)thio]propanamide] | 24.6 nM | 
CC#CCOc1ccc(S(=O)(=O)N[C@H](CCCN)C(=O)NO)cc1 [Example 314, (2R)-5-Amino-2-({[4-(but-2-ynyloxy)phenyl]sulfonyl}amino)-N-hydroxypentanamide] | 25 nM | 
CC#CCOc1ccc(S(=O)(=O)N[C@H](CCCNC(=O)/C=C/c2ccccc2)C(=O)NO)cc1 [Example 348, (E)-N-[(4R)-4-({[4-(But-2-ynyloxy)phenyl]sulfonyl}amino)-5-(hydroxyamino)-5-oxopentyl]-3-phenylprop-2-enamide] | 6.25 nM | 
CC#CCOc1ccc(S(=O)(=O)N[C@H](CCCNC(=O)c2ccc(OC)cc2)C(=O)NO)cc1 [Example 343, N-[(4R)-4-({[4-(But-2-ynyloxy)phenyl]sulfonyl}amino)-5-(hydroxyamino)-5-oxopentyl]-4-methoxybenzamide] | 3.54 nM | 
CC#CCOc1ccc(S(=O)(=O)N[C@H](CCCCNC(=O)c2ccc3[nH]cnc3c2)C(=O)NO)cc1 [Example 349, N-[(5R)-5-({[4-(But-2-ynyloxy)phenyl]sulfunyl}amino)-6-(hydroxyamino)-6-oxohexyl]-1H-benzimidazole-5-carboxamide] | 9.41 nM | 
CC#CCOc1ccc(S(=O)(=O)NC(CCC(=O)O)C(=O)NO)cc1 (stereo not drawn) [Example 86] |  | % Inhibition at 1 uM (In Vitro Inhibition of TACE) (1 uM): 37.5%
CC#CCOc1ccc(S(=O)(=O)N[C@H](CCCCNC(=O)c2c(C)noc2C)C(=O)NO)cc1 [Example 357, N-[(5R)-5-({[4-(But-2-ynyloxy)phenyl]sulfonyl}amino)-6-(hydroxyamino)-6-oxohexyl]-3,5-dimethylisoxazole-4-carboxamide] | 14.1 nM | 
CC#CCOc1ccc(S(=O)(=O)N[C@H](CCCCNC(=O)/C=C/c2ccccc2)C(=O)NO)cc1 [Example 366, (E)-N-[(5R)-5-({[4-(But-2-ynyloxy)phenyl]sulfonyl}amino)-6-(hydroxyamino)-6-oxohexyl]-3-phenylprop-2-enamide] | 106 nM | 
CC#CCOc1ccc(S(=O)(=O)NC(CC(C)C)C(=O)NO)cc1 (stereo not drawn) [Example 79] |  | % Inhibition at 1 uM (In Vitro Inhibition of TACE) (1 uM): 107%; IC50 [2]: 5.7 ± 2.5 nM
CC#CCOc1ccc(S(=O)(=O)N2CC(OCc3ccccc3)CC2C(=O)NO)cc1 (stereo not drawn) [Example 88] |  | % Inhibition at 1 uM (In Vitro Inhibition of TACE) (1 uM): 8.4%
CC#CCOc1ccc(S(=O)(=O)N[C@H](COCc2ccccc2)C(=O)NO)cc1 [Example 320, (2R)-3-(Benzyloxy)-2-({[4-(but-2-ynyloxy)phenyl]sulfonyl}amino)-N-hydroxypropanamide] | 7.4 nM | 
